SMILES strings stand for the structures. A value given as a limit tells only on which side of the number the result lay.

In the first experiment the test system is Utrophin A promoter linked to a luciferase reporter gene. The experiment is described as follows: Luciferase reporter assay (murine H2K cells). The experiment is classed as cell-based. To be noted: Mus musculus, H2K mdx, luciferase level relative to control; H2K/mdx/Utro A reporter cells; compound 10 μM final concentration; read-out: Activity. The procedure: 1. Luciferase Reporter Assay (Murine H2K Cells)
The cell line used for the screen is an immortalized mdx mouse H2K cell line that has been stably transfected with a plasmid containing […] fragment of the Utrophin A promoter including the first untranslated exon linked to a luciferase reporter gene. Under conditions of low temperature and interferon containing media, the cells remain as myoblasts. These are plated into 96 well plates and cultured in the presence of compound for three days. The level of luciferase is then determined by cell lysis and reading of the light output from the expressed luciferase gene utilising a plate luminometer.
H2K/mdx/Utro A reporter Cell Line Maintenance
The cells were grown at 33° C. in the presence of 10% CO2. To remove the myoblasts for platting, they were incubated with Trypsin EDTA until the monolayer started to detach.
The plates were then incubated at 33° C. in the presence of 10% CO2 for 24 hrs. Compounds were dosed by adding 10 μl of diluted compound to each well giving a final concentration of 10 μM. The plates were then incubated for a further 48 hrs. Cells were then lysed in situ following the manufacture's protocols (Promega Steady-Glo Luciferase Assay System (E2520). Then counted for 10 seconds using a plate luminometer (Victor1420).
Compounds for screening were stored at −20° C. as 10 mM stocks in 100% DMSO until required.
Biological activity as assessed using the luciferase reporter assay in murine H2K cells, and is classified as follows: […]
For orientation: Reporter assays use an easily measured gene product as a stand-in for the process of interest.
On to `CN(C)c1ccc(C(=O)Nc2ccc3oc(-c4ccccc4)nc3c2)cc1` [Example 27, 4-(dimethylamino)-N-(2-phenylbenzo[d]oxazol-5-yl)benzamide], for which the activity at 10 µM was less than 200%.

In the case of `CCCC(=O)Nc1ccc2oc(-c3cccc(F)c3)nc2c1` [Example 244, N-(2-(3-fluorophenyl)benzo[d]oxazol-5-yl)butyramide], the activity at 10 µM was greater than 401%. The same measure, in the same setting: under `CCS(=O)(=O)c1ccc2oc(C3CCCCC3)nc2c1` [Example 392, 2-cyclohexyl-5-(ethylsulfonyl)benzo[d]oxazole] stands less than 200%. Take `CCCC(=O)Nc1ccc2oc(-c3cccc(C(F)(F)F)c3)nc2c1` [Example 225, N-(2-(3-(trifluoromethyl)phenyl)benzo[d]oxazol-5-yl)butyramide]: the activity at 10 µM was less than 200%. Same read-out and setting: under `CCCC(=O)Nc1ccc2oc(-c3ccc(C)cc3)nc2c1` [Example 116, N-(2-p-tolylbenzo[d]oxazol-5-yl)butyramide] stands greater than 401%; under `O=C(Nc1ccc2oc(-c3ccc(C(F)(F)F)cc3)nc2c1)c1ccncc1` [Example 122, N-(2-(4-(trifluoromethyl)phenyl)benzo[d]oxazol-5-yl)isonicotinamide], less than 200%. Still for that read-out and setting: under `CC(C)C(=O)Nc1ccc(-c2nc3c(ccc4ccccc43)o2)cc1` [Example 442, N-(4-(naphtho[1,2-d]oxazol-2-yl)phenyl)isobutyramide] stands 301 to 400%; under `COC(=O)c1ccc(-c2ccc3oc(-c4ccc(Cl)cc4)nc3c2)cc1` [Example 287, methyl 4-(2-(4-chlorophenyl)benzo[d]oxazol-5-yl)benzoate], less than 200%; under `Nc1ccc(-c2nc3cc(Br)ccc3o2)cc1` [Example 336, 4-(5-bromobenzo[d]oxazol-2-yl)aniline], greater than 401%. The same measure, in the same setting: for `Nc1ccc2[nH]c(-c3ccccc3O)nc2c1` [Example 133, 2-(5-amino-1H-benzo[d]imidazol-2-yl)phenol] the value was less than 200%; for `CN(C)c1ccc(C(=O)Nc2ccc3oc(-c4cccnc4)nc3c2)cc1` [Example 44, 4-(dimethylamino)-N-(2-(pyridin-3-yl)benzo[d]oxazol-5-yl)benzamide], less than 200%; for `CC(C)S(=O)(=O)c1ccc2oc(-c3ccc(Cl)c(Cl)c3)nc2c1` [Example 434, 2-(3,4-dichlorophenyl)-5-(isopropylsulfonyl)benzo[d]oxazole], 301 to 400%. In the case of `CCCC(=O)Nc1ccc2oc(-c3cccc(Cl)c3)nc2c1` [Example 239, N-(2-(3-chlorophenyl)benzo[d]oxazol-5-yl)butyramide], the activity at 10 µM was less than 200%. Same read-out and setting: under `CC(C)C(=O)N(C)c1ccc2oc(-c3ccc(Cl)cc3)nc2c1` [Example 320, N-(2-(4-chlorophenyl)benzo[d]oxazol-5-yl)-N-methylisobutyramide] stands 201 to 300%.

Consider `CCN(CC)c1ccc(-c2nc3cc(NC(=O)CCc4ccccc4)ccc3o2)cc1` [Example 74, N-(2-(4-(diethylamino)phenyl)benzo[d]oxazol-5-yl)-3-phenylpropanamide], for which the activity at 10 µM is less than 200%. Turning to `Cc1cc2nc(-c3ccc(F)cc3F)oc2cc1C` [Example 247, 2-(2,4-difluorophenyl)-5,6-dimethylbenzo[d]oxazole], the activity at 10 µM was 201 to 300%. Still for that read-out and setting: for `CC(C)CN(C)c1ccc2oc(-c3ccc(Cl)cc3)nc2c1` [Example 322, 2-(4-chlorophenyl)-N-isobutyl-N-methylbenzo[d]oxazol-5-amine] the value was less than 200%. Consider `Nc1ccc(-c2nc3cc(Cl)c(Cl)cc3o2)c(O)c1` [Example 428, 5-amino-2-(5,6-dichlorobenzo[d]oxazol-2-yl)phenol], for which the activity at 10 µM is 301 to 400%. The same measure, in the same setting: for `CC(C)C(=O)Nc1ccc2sc(-c3cccc(Cl)c3Cl)nc2c1` [Example 303, N-(2-(2,3-dichlorophenyl)benzo[d]thiazol-5-yl)isobutyramide] the value was 301 to 400%; for `CCS(=O)(=O)c1ccc2oc(-c3ccc(C)s3)nc2c1` [Example 418, 5-(ethylsulfonyl)-2-(5-methylthiophen-2-yl)benzo[d]oxazole], greater than 401%; for `CCC(=O)c1ccc2oc(-c3ccc(Cl)cc3)nc2c1` [Example 417, 1-(2-(4-chlorophenyl)benzo[d]oxazol-5-yl)propan-1-one], greater than 401%.

For the molecule `O=C(Nc1ccc2oc(-c3ccc(C(F)(F)F)cc3)nc2c1)c1cccnc1` [Example 121, N-(2-(4-(trifluoromethyl)phenyl)benzo[d]oxazol-5-yl)nicotinamide], the activity at 10 µM was less than 200%. Regarding `Cc1ccc(-c2nc3cc(NC(=O)CCC(F)(F)F)ccc3o2)cc1` [Example 233, 4,4,4-trifluoro-N-(2-p-tolylbenzo[d]oxazol-5-yl)butanamide], the activity at 10 µM was less than 200%. For `O=C(CCc1ccccc1)Nc1ccc2oc(-c3ccccc3)nc2c1` [Example 7, 3-phenyl-N-(2-phenylbenzo[d]oxazol-5-yl)propanamide], the activity at 10 µM is less than 200%.

In the case of `Nc1ccc2oc(-c3ccc(-c4ccccc4)cc3)nc2c1` [Example 401, 2-(biphenyl-4-yl)benzo[d]oxazol-5-amine], the activity at 10 µM is 301 to 400%. Same read-out and setting: for `O=C(Nc1ccc2oc(-c3ccc(Cl)cc3)nc2c1)C1CCCC1` [Example 346, N-(2-(4-chlorophenyl)benzo[d]oxazol-5-yl)cyclopentanecarboxamide] the value was less than 200%; for `CC(=O)Nc1ccc(-c2nc3ccc(Cl)cc3o2)cc1` [Example 332, N-(4-(6-chlorobenzo[d]oxazol-2-yl)phenyl)acetamide], 301 to 400%.

For `O=C(Nc1ccc2oc(-c3ccccc3)nc2c1)c1cccc2ccccc12` [Example 35, N-(2-phenylbenzo[d]oxazol-5-yl)-1-naphthamide], the activity at 10 µM was less than 200%. Still for that read-out and setting: for `Cc1ccccc1-c1nc2cc(NC(=O)C(C)C)ccc2o1` [Example 226, N-(2-o-tolylbenzo[d]oxazol-5-yl)isobutyramide] the value was greater than 401%; for `Clc1ccc2oc(-c3ccccc3)nc2c1` [Example 111, 5-chloro-2-phenylbenzo[d]oxazole], 201 to 300%.

In the case of `Cn1c(COc2ccc(Cl)cc2)nc2ccccc21` [Example 3, 2-((4-chlorophenoxy)methyl)-1-methyl-1H-benzo[d]imidazole], the activity at 10 µM lay in the range of 301 to 400%. Take `CCCC(=O)Nc1ccc2oc(-c3cccc(N(C)C)c3)nc2c1` [Example 201, N-(2-(3-(dimethylamino)phenyl)benzo[d]oxazol-5-yl)butyramide]: the activity at 10 µM is less than 200%. On the same count and under the same terms, for `CCS(=O)(=O)c1ccc2oc(-c3ccc(Cl)c(Cl)c3)nc2c1` [Example 301, 2-(3,4-diChlorophenyl)-5-(ethylsulfonyl)benzo[d]oxazole] the value was 201 to 300%.

The experiment is the same for the next values; noted with them: luciferase reporter assay in murine H2K cells; classified relative to control.
As to `Cc1cccc(NC(=O)c2sc3nc(C)cc(C)c3c2N)c1` [Example 650], the Activity result is “+++ (Between 301% and 400% relative to control)”.

Take `O=[N+]([O-])c1cc(-c2nc3ccccc3s2)ccc1Cl` [Example 523]: the Activity result is “+ (Up to 200% relative to control)”. Same read-out and setting: under `Nc1c(C(=O)Nc2ccc(F)cc2)sc2nc3c(cc12)CCC3` [Example 628] stands “++++ (Above 401% relative to control)”. The same measure, in the same setting: under `Cc1ccc2sc(NC(=O)NC(=O)c3c(Cl)cccc3Cl)nc2c1` [Example 462] stands “+ (Up to 200% relative to control)”. Still for that read-out and setting: under `Cc1cc(-c2nc3ccccc3s2)ccc1[N+](=O)[O-]` [Example 599] stands “++++ (Above 401% relative to control)”. For `COc1ccc(-c2nc3ccccc3o2)cc1` [Example 583], the Activity entry is “+++ (Between 301% and 400% relative to control)”. On the same count and under the same terms, for `COc1ccc(-c2nc3ccccc3n2C)cc1OC` [Example 521] the value was “+ (Up to 200% relative to control)”; for `CCCCc1nc2cc(S(=O)(=O)CC)ccc2o1` [Example 570], “+ (Up to 200% relative to control)”; for `O=C(Cc1ccccc1)Nc1ccc(-c2nc3ccccc3[nH]2)cc1` [Example 501], “+ (Up to 200% relative to control)”. With `Nc1ccc(-c2nc3cc(Cl)cc(Cl)c3o2)cc1` [Example 518], the Activity result was “++ (Between 201% and 300% relative to control)”. The same measure, in the same setting: under `OCc1cn(-c2ccccc2)nc1-c1cc2ccccc2o1` [Example 674] stands “++ (Between 201% and 300% relative to control)”; under `COc1ccc2oc(-c3ccc(C)c(N)c3)nc2c1` [Example 686], “++ (Between 201% and 300% relative to control)”; under `Cc1ccc2nc(-c3ccc(O)cc3)sc2c1` [Example 643], “+++ (Between 301% and 400% relative to control)”. Same read-out and setting: under `Cc1cc2nc(-c3ccc(N)cc3)oc2cc1C` [Example 485] stands “++ (Between 201% and 300% relative to control)”; under `CC(=O)Oc1ccc(C(=O)Nc2ccc(-c3nc4ccccc4[nH]3)cc2)cc1` [Example 655], “+++ (Between 301% and 400% relative to control)”; under `Cc1ccc(C(=O)Nc2ccc3c(c2)ncn3C)cc1` [Example 670], “++ (Between 201% and 300% relative to control)”.

The record behind these values is patent publication US8501713B2, “Drug combinations for the treatment of duchenne muscular dystrophy” (Summit Corporation PLC, priority 2007, dated 2013).
